# Data as given in patent publication US20210254056A1, “IDENTIFICATION AND TARGETED MODULATION OF GENE SIGNALING NETWORKS” (CAMP4 THERAPEUTICS CORPORATION, priority 2017, published 2021).
# Tested on: hepatocytes
# Assay: RNA-seq of hepatocytes treated with Phase III failure compounds
# Experimental: RNA-seq was performed to determine the effects of the compounds on hepatocytes.
# Significance was determined by the criteria of FPKM≥0.5, a log 2(fold-change)≥1, and a […].
smiles,measurement,setting,value
NC(=O)c1ccc(I)c([N+](=O)[O-])c1 [BSI-201],"RNA-seq results, CYP2B6 expression",,0.07
same,"RNA-seq results, CYP2C19 expression",,0.30
same,"RNA-seq results, CYP2D6 expression",,−0.15
same,"RNA-seq results, CYP3A4 expression",,−0.46
same,"RNA-seq results, CYP7B1 expression",,0.03
same,"RNA-seq results, CYP39A1 expression",,−0.20
same,RNA-seq results: CYP2B6 expression,,0.48
same,RNA-seq results: CYP2C19 expression,,0.24
same,RNA-seq results: CYP2D6 expression,,0.11
same,RNA-seq results: CYP3A4 expression,,3.12
same,RNA-seq results: CYP7B1 expression,,0.05
same,RNA-seq results: CYP39A1 expression,,0.43
same,significant modulation of expression of disease genes,"RNA-seq, q≤0.05, hepatocytes, genes in the value or listed in the block",significantly (q≤0.05) modulate expression of RMRP
same,RNA-seq results: A1BG expression,"gene A1BG, hepatocytes",−0.21
same,RNA-seq results: AGTR1 expression,"gene AGTR1, hepatocytes",−0.22
same,RNA-seq results: AGXT expression,"gene AGXT, hepatocytes",−0.06
same,RNA-seq results: AHI1 expression,"gene AHI1, hepatocytes",0.33
same,RNA-seq results: AMPD3 expression,"gene AMPD3, hepatocytes",0.19
same,RNA-seq results: AMT expression,"gene AMT, hepatocytes",−0.04
same,RNA-seq results: ANGPTL3 expression,"gene ANGPTL3, hepatocytes",−0.14
same,RNA-seq results: ANKS4B expression,"gene ANKS4B, hepatocytes",−0.24
same,RNA-seq results: ANKS6 expression,"gene ANKS6, hepatocytes",0.04
same,RNA-seq results: ANPEP expression,"gene ANPEP, hepatocytes",−0.09
same,RNA-seq results: AOC2 expression,"gene AOC2, hepatocytes",0.36
same,RNA-seq results: APOA2 expression,"gene APOA2, hepatocytes",−0.52
same,RNA-seq results: APOA5 expression,"gene APOA5, hepatocytes",−0.17
same,RNA-seq results: APOB expression,"gene APOB, hepatocytes",0.03
same,RNA-seq results: COG5 expression,"gene COG5, hepatocytes",−0.06
same,RNA-seq results: COG6 expression,"gene COG6, hepatocytes",−0.01
same,RNA-seq results: COL1A1 expression,"gene COL1A1, hepatocytes",−0.34
same,RNA-seq results: COX6A1 expression,"gene COX6A1, hepatocytes",−0.13
same,RNA-seq results: CP expression,"gene CP, hepatocytes",0.11
same,RNA-seq results: CPS1 expression,"gene CPS1, hepatocytes",0.09
same,RNA-seq results: CPT1A expression,"gene CPT1A, hepatocytes",−0.18
same,RNA-seq results: CPT2 expression,"gene CPT2, hepatocytes",0.10
same,RNA-seq results: CROT expression,"gene CROT, hepatocytes",−0.04
same,RNA-seq results: CSPP1 expression,"gene CSPP1, hepatocytes",−0.07
same,RNA-seq results: CTC1 expression,"gene CTC1, hepatocytes",−0.08
same,RNA-seq results: CTDSP2 expression,"gene CTDSP2, hepatocytes",0.10
same,RNA-seq results: CTH expression,"gene CTH, hepatocytes",0.23
same,RNA-seq results: CTNS expression,"gene CTNS, hepatocytes",0.08
same,RNA-seq results: CTSF expression,"gene CTSF, hepatocytes",0.10
same,RNA-seq results: CTSK expression,"gene CTSK, hepatocytes",−0.15
same,RNA-seq results: CYB5A expression,"gene CYB5A, hepatocytes",0.73
same,RNA-seq results: CYB5R3 expression,"gene CYB5R3, hepatocytes",0.04
same,RNA-seq results: CYP27A1 expression,"gene CYP27A1, hepatocytes",0.04
same,RNA-seq results: DAO expression,"gene DAO, hepatocytes",−0.04
same,RNA-seq results: DBT expression,"gene DBT, hepatocytes",0.04
same,RNA-seq results: DCDC2 expression,"gene DCDC2, hepatocytes",0.01
same,RNA-seq results: DCXR expression,"gene DCXR, hepatocytes",−0.01
same,RNA-seq results: FABP1 expression,"gene FABP1, hepatocytes",−0.25
same,RNA-seq results: FADD expression,"gene FADD, hepatocytes",−0.08
same,RNA-seq results: FAM111A expression,"gene FAM111A, hepatocytes",0.07
same,RNA-seq results: FAM111B expression,"gene FAM111B, hepatocytes",0.03
same,RNA-seq results: FAN1 expression,"gene FAN1, hepatocytes",0.05
same,RNA-seq results: FARS2 expression,"gene FARS2, hepatocytes",−0.14
same,RNA-seq results: FASLG expression,"gene FASLG, hepatocytes",−0.21
same,RNA-seq results: FGA expression,"gene FGA, hepatocytes",0.16
same,RNA-seq results: FGD1 expression,"gene FGD1, hepatocytes",−0.07
same,RNA-seq results: FGFR2 expression,"gene FGFR2, hepatocytes",0.07
same,RNA-seq results: FIG4 expression,"gene FIG4, hepatocytes",−0.12
same,RNA-seq results: FIS1 expression,"gene FIS1, hepatocytes",−0.06
same,RNA-seq results: FTCD expression,"gene FTCD, hepatocytes",0.31
same,RNA-seq results: FTH1 expression,"gene FTH1, hepatocytes",0.06
same,RNA-seq results: FUCA1 expression,"gene FUCA1, hepatocytes",−0.11
same,RNA-seq results: FXN expression,"gene FXN, hepatocytes",0.23
same,RNA-seq results: G6PC3 expression,"gene G6PC3, hepatocytes",0.02
same,RNA-seq results: G6PC expression,"gene G6PC, hepatocytes",0.12
same,RNA-seq results: G6PD expression,"gene G6PD, hepatocytes",0.13
same,RNA-seq results: GALK1 expression,"gene GALK1, hepatocytes",−0.03
same,RNA-seq results: GALK2 expression,"gene GALK2, hepatocytes",0.00
same,RNA-seq results: GALT expression,"gene GALT, hepatocytes",0.01
same,RNA-seq results: GATA6 expression,"gene GATA6, hepatocytes",−0.07
same,RNA-seq results: GATM expression,"gene GATM, hepatocytes",−0.15
same,RNA-seq results: GBA expression,"gene GBA, hepatocytes",0.02
same,RNA-seq results: GBE1 expression,"gene GBE1, hepatocytes",−0.15
same,RNA-seq results: GCH1 expression,"gene GCH1, hepatocytes",−0.06
same,RNA-seq results: GCKR expression,"gene GCKR, hepatocytes",0.23
same,RNA-seq results: GCLC expression,"gene GCLC, hepatocytes",−0.04
same,RNA-seq results: GOSH expression,"gene GOSH, hepatocytes",0.46
same,RNA-seq results: RRM2B,"gene RRM2B, hepatocytes",−0.28
same,RNA-seq results: RSAD1,"gene RSAD1, hepatocytes",−0.02
same,RNA-seq results: SAMHD1,"gene SAMHD1, hepatocytes",−0.24
same,RNA-seq results: SC5D,"gene SC5D, hepatocytes",−0.29
same,RNA-seq results: SCARB1,"gene SCARB1, hepatocytes",−0.03
same,RNA-seq results: SCN9A,"gene SCN9A, hepatocytes",0.10
same,RNA-seq results: SDCCAG8,"gene SDCCAG8, hepatocytes",−0.06
same,RNA-seq results: SEPN1,"gene SEPN1, hepatocytes",−0.11
same,RNA-seq results: SERAC1,"gene SERAC1, hepatocytes",−0.22
same,RNA-seq results: SERPINA1,"gene SERPINA1, hepatocytes",−0.17
same,RNA-seq results: SERPING1,"gene SERPING1, hepatocytes",−0.16
same,RNA-seq results: SERPINI1,"gene SERPINI1, hepatocytes",−0.41
same,RNA-seq results: SETBP1,"gene SETBP1, hepatocytes",0.06
same,RNA-seq results: SFXN4,"gene SFXN4, hepatocytes",−0.19
same,RNA-seq results: SLC10A1,"gene SLC10A1, hepatocytes",−0.31
same,RNA-seq results: SLC10A3,"gene SLC10A3, hepatocytes",0.33
same,RNA-seq results: SLC10A5,"gene SLC10A5, hepatocytes",0.19
same,RNA-seq results: SLC10A7,"gene SLC10A7, hepatocytes",−0.38
same,RNA-seq results: SLC11A2,"gene SLC11A2, hepatocytes",−0.02
same,RNA-seq results: SLC19A1,"gene SLC19A1, hepatocytes",0.05
same,RNA-seq results: SLC19A2,"gene SLC19A2, hepatocytes",0.00
same,RNA-seq results: SLC19A3,"gene SLC19A3, hepatocytes",−0.03
same,RNA-seq results: SLC22A1,"gene SLC22A1, hepatocytes",−0.32
same,RNA-seq results: SLC22A5,"gene SLC22A5, hepatocytes",0.05
same,RNA-seq results: SLC25A1,"gene SLC25A1, hepatocytes",0.08
same,RNA-seq results: SLC25A10,"gene SLC25A10, hepatocytes",−0.16
same,RNA-seq results: SLC25A12,"gene SLC25A12, hepatocytes",0.23
same,RNA-seq results: SLC25A13,"gene SLC25A13, hepatocytes",−0.13
same,RNA-seq results: SLC25A15,"gene SLC25A15, hepatocytes",0.02
same,RNA-seq results: SLC25A19,"gene SLC25A19, hepatocytes",−0.15
same,RNA-seq results: SLC25A20,"gene SLC25A20, hepatocytes",−0.16
same,RNA-seq results: SLC25A29,"gene SLC25A29, hepatocytes",0.09
same,RNA-seq results: SLC25A32,"gene SLC25A32, hepatocytes",−0.05
"CCCCCCCCCCCCCCCCOCCCOP(=O)(O)CO[C@H](CO)Cn1ccc(N)nc1=O [CMX001 (Brincidofovir), Brincidofovir]",significant changes in gene expression,"RNA-seq of Table 36, FPKM≥0.5, log 2(fold-change)≥1, q-value≤0.05",not observed to cause any significant changes in gene expression
same,significant modulation of expression of any of the genes analyzed,"RNA-seq, p≤0.05, hepatocytes",not observed to significantly modulate expression
same,effect on disease gene expression,"RNA-seq, hepatocytes",no effect on any disease gene
